# Experimental data reported in publication PMC4826920 (Evidence-based Complementary and Alternative Medicine : eCAM, 2016).
# Columns and labels:
# [1] = target: T1, recombinant human MAO-A (hMAO-A) (Homo sapiens, UniProt P21397); assay: MAO-Glow luminescence assay, hMAO-A inhibition; format: biochemical; settings: up to 250 μM tested
# T1 construct: purchased Sigma-Aldrich
# T1 sequence (P21397 1-527): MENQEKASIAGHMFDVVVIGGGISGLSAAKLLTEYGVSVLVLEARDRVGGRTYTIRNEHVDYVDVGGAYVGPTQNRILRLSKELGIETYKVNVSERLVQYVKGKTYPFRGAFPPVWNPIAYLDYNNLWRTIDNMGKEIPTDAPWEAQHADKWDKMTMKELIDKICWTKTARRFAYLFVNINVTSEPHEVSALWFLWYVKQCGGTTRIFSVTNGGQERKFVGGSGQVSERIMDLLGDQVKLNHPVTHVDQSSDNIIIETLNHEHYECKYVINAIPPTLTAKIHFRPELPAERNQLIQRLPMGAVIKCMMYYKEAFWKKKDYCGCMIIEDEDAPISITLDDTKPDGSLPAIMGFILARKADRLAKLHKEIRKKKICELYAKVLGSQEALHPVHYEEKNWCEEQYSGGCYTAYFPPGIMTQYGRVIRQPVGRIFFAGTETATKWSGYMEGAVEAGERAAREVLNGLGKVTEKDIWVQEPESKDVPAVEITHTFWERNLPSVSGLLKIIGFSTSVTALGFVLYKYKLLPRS
# Procedure: (§1) All analyses were performed by GraphPad Prism Software 6.02 (San Diego, CA, USA). IC50 values were determined by nonlinear regression best-fit model of normalized response with variable slope. The inhibitor constant (K i) values were obtained from the competitive inhibition model. Lineweaver-Burk plot was obtained from Michaelis-Menten data. Relative selectivity (RS) folds were defined by the ratio of hMAO-A IC50 to hMAO-B IC50. The significance of the difference between two groups was determined using an unpaired t-test, between the control and treatments using one-way ANOVA followed by Dunnett's multiple comparisons tests and between two sets of data using two-way ANOVA followed by Sidak's multiple comparisons test.
# [2] = target: T2, recombinant human MAO-B (hMAO-B) (Homo sapiens, UniProt P27338); assay: MAO-Glow luminescence assay, hMAO-B inhibition; format: biochemical
# T2 construct: purchased Sigma-Aldrich
# T2 sequence (P27338 1-520): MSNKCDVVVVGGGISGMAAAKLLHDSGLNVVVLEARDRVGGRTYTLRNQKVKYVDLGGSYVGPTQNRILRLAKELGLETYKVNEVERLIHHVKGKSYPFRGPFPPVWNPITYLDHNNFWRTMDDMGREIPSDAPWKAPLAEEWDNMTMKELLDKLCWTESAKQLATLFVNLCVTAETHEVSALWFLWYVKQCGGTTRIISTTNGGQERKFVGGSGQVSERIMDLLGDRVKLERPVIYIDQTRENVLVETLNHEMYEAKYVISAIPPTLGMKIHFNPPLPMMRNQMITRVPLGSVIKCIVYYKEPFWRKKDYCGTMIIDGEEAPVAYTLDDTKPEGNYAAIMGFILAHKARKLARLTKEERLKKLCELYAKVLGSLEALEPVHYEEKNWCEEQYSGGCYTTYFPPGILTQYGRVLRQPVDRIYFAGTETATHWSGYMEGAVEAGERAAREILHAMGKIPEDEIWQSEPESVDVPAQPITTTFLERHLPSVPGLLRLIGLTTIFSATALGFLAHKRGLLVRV
# Procedure: as §1, with “IC50” for “All analyses were performed by GraphPad Prism Software 6.02 (San Diego, CA, USA). IC50”
# rat MAO = settings: cited from earlier work
# hMAO-A [3] = target: T3, hMAO-A (Homo sapiens, UniProt P21397); assay: Recovery by dilution assay, hMAO-A; format: biochemical
# T3 construct: purchased Sigma-Aldrich
# T3 sequence (P21397 1-527): T1 sequence (P21397 1-527)
# Procedure: (§2) The microplates were then incubated for 30, 40, 50, and 60 min. RLDR was added, and luminescence was measured as mentioned above.
# hMAO-B [4] = target: T4, hMAO-B (Homo sapiens, UniProt P27338); assay: Recovery by dilution assay, hMAO-B; format: biochemical
# T4 construct: purchased Sigma-Aldrich
# T4 sequence (P27338 1-520): T2 sequence (P27338 1-520)
# Procedure: as §2
# hMAO-A [5] = target: T3, hMAO-A; assay: Michaelis-Menten kinetics (mode of inhibition), hMAO-A; format: biochemical
# Procedure: (§3) After 1.5 h of incubation, RLDR was added, and the luminescence signal was detected as mentioned in the hMAO-A and hMAO-B assay.
# as §1
# hMAO-B [6] = target: T4, hMAO-B; assay: Michaelis-Menten kinetics (mode of inhibition), hMAO-B; format: biochemical
# Procedure: as §3
# as §1, with “IC50” for “All analyses were performed by GraphPad Prism Software 6.02 (San Diego, CA, USA). IC50”
# [7] = oral 54 mg/day, postmenopausal women; cited from earlier work
# bovine plasma MAO = system: bovine plasma MAO; parameters: method as in PMID 1913999; settings: cited from earlier work
# [8] = 40 min preincubation at 10x IC50, 100-fold dilution, vs negative control
# [9] = 40 min preincubation at 100x IC50, 100-fold dilution, vs negative control
# [10] = up to 60 min at RT, maximum 100x IC50
SMILES,hMAO-A inhibitory effect [1],hMAO-B inhibitory effect ([2]; up to 250 μM tested),Rat MAO inhibition (rat MAO),hMAO-B potency as % of DEP potency ([2]; from IC50 values) [%],hMAO-A residual catalytic rate after dilution to 0.1x IC50 (hMAO-A [3]; [8]) [%],hMAO-A residual catalytic rate after dilution to 1x IC50 (hMAO-A [3]; [9]) [%],Reversibility of hMAO-A inhibition (hMAO-A [3]; [10]),hMAO-B residual catalytic rate after dilution to 0.1x IC50 (hMAO-B [4]; [8]) [%],hMAO-B residual catalytic rate after dilution to 1x IC50 (hMAO-B [4]; [9]) [%],Reversibility of hMAO-B inhibition (hMAO-B [4]; [10]),"Change in Vmax, hMAO-A (hMAO-A [5]; GST 5, 10, 20 μM, p = 0.10)","Mode of hMAO-A inhibition (hMAO-A [5]; Lineweaver-Burk, LDS substrate)","Change in Vmax, hMAO-B (hMAO-B [6]; GST 5, 10, 20 μM, p = 0.44)","Mode of hMAO-B inhibition (hMAO-B [6]; Lineweaver-Burk, LDS substrate)",hMAO-B Ki lower than hMAO-A Ki (hMAO-B [6]; ratio of Ki values) [fold],Steady-state level [7],Bovine plasma MAO inhibition (bovine plasma MAO)
"O=c1c(-c2ccc(O)cc2)coc2cc(O)ccc12 [DZ, Daidzein]",minor or partial inhibitory effect,minor or partial inhibitory effect,no significant rat MAO inhibition,–,–,–,–,–,–,–,–,–,–,–,–,–,–
"O=c1c(-c2ccc(O)cc2)coc2cc(O)cc(O)c12 [GST, Genistein]",–,–,–,1.4,86.8,42.3,reversible inhibitor,86.1,47.1,reversible inhibitor,no significant change,competitive,no significant change,competitive,3.0,up to 1.00 μM,weak bovine plasma MAO inhibition
